Measurements from publication PMC12562379, “Facile Synthesis of N-vinylindoles via Knoevenagel Condensation: Molecular Features and Biological Activities” (International Journal of Molecular Sciences, 2025).
Values after ≈ are worked out from the molar mass of the structure shown.

Experiments:
[1] = test system: S. aureus ATCC 6535, S. aureus MRSA 12673 and other tested bacterial and yeast strains; assay: Microbroth dilution assay, ranges stated over several strains; assay type: cell-based; conditions: range over S. aureus ATCC 6535 and MRSA 12673
SKOV-3 cells = assay: Caspase-3/7 assay (apoptosis, Muse Cell Analyzer); assay type: cell-based, human; conditions: SKOV-3, 24 h
Experimental: The SKOV-3 cells (5 × 10^5 cells/well) were seeded and incubated with compound 2i at concentrations of 2, 5, 10, 15, 30, and 60 µg/mL for 24 h. Then, the cells were stained with Muse Caspase-3/7 Kit, according to the manufacturer’s instructions. Muse Cell Analyzer and Muse 1.4 Analysis Software (Merck Millipore, Burlington, MA, USA) were used to calculate the amount of live, early apoptotic, late apoptotic, and dead cells. The results are shown as a percentage of the cells in each population obtained from two independently repeated experiments (in three repeats).

S. aureus MRSA 12673 = assay: Microbroth dilution assay; assay type: cell-based; conditions: Staphylococcus aureus, S. aureus MRSA 12673

C(=C(\C1=NCCN1)n1ccc2ccccc21)/c1ccc2ccccc2c1 [Compound 2i, (Z)-1-[1-(4,5-dihydro-1H-imidazol-2-yl)-2-(naphthalen-2-yl)vinyl]-1H-indole]
MBC (range over strains) [1]: 30 µg/mL (≈ 88.9 µM) | MIC (range over strains) [1]: 15 to 30 µg/mL | dead cells (SKOV-3 cells; 2 µg/mL): 6.07 ± 0.58% | late apoptotic cells (SKOV-3 cells; 2 µg/mL): 11.52 ± 1.53% | dead cells (SKOV-3 cells; 5 µg/mL): 7.65 ± 0.61% | late apoptotic cells (SKOV-3 cells; 5 µg/mL): 22.72 ± 1.37% | dead cells (SKOV-3 cells; 10 µg/mL): 18.11 ± 1.45% | late apoptotic cells (SKOV-3 cells; 10 µg/mL): 48.85 ± 0.39% | dead cells (SKOV-3 cells; 15 µg/mL): 31.52 ± 2.68% | late apoptotic cells (SKOV-3 cells; 15 µg/mL): 54.94 ± 3.12% | dead cells (SKOV-3 cells; 30 µg/mL): 68.95 ± 2.09% | late apoptotic cells (SKOV-3 cells; 30 µg/mL): 28.21 ± 1.61% | dead cells (SKOV-3 cells; 60 µg/mL): 66.85 ± 1.96% | late apoptotic cells (SKOV-3 cells; 60 µg/mL): 31.87 ± 2.01% | induction of apoptosis (SKOV-3 cells; from 2 µg/mL to 60 µg/mL): significantly induced apoptosis | MBC (S. aureus MRSA 12673): 30 µg/mL (≈ 88.9 µM) | MIC (S. aureus MRSA 12673; read-out: MIC): 30 µg/mL (≈ 88.9 µM)
